ChEMBL document CHEMBL1201862, “PubChem BioAssay data set” (2004)
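96-well plates; 48 h exposure; 5 concentrations. Endpoints by linear interpolation between flanking doses. Not reached: highest tested concentration assigned. At the GI50, growth is halved.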 Activity calls are given as the source filed them. No stated cut-off is given here; in the data, active = GI50 up to about 1.1 µM and inactive = higher.

Key:
Experiment in all cases: growth of human tumour cells (NCI), 48 h
HCT-15 = test system: HCT-15
HOP-92 = test system: HOP-92
KM12 = test system: KM12
RXF 393 = test system: RXF 393
ACHN = test system: ACHN
IGROV-1 = test system: IGROV-1
NCI/ADR-RES = test system: NCI/ADR-RES
Malme-3M = test system: Malme-3M
COLO 205 = test system: COLO 205
LOX IMVI = test system: LOX IMVI
HOP-62 = test system: HOP-62
PC-3 = test system: PC-3
MCF7 = test system: MCF7
CCRF-CEM = test system: CCRF-CEM
U-251 = test system: U-251
UACC-62 = test system: UACC-62
SF-268 = test system: SF-268
K562 = test system: K562
MOLT-4 = test system: MOLT-4
SR = test system: SR
OVCAR-8 = test system: OVCAR-8
OVCAR-4 = test system: OVCAR-4
SK-OV-3 = test system: SK-OV-3
SNB-75 = test system: SNB-75
DU-145 = test system: DU-145
TK-10 = test system: TK-10
CAKI-1 = test system: CAKI-1
RPMI-8226 = test system: RPMI-8226
OVCAR-3 = test system: OVCAR-3
UO-31 = test system: UO-31
OVCAR-5 = test system: OVCAR-5
HL-60 = test system: HL-60
M14 = test system: M14
BT-549 = test system: BT-549
EKVX = test system: EKVX
NCI-H522 = test system: NCI-H522
NCI-H23 = test system: NCI-H23
A549 = test system: A549
MDA-MB-435 = test system: MDA-MB-435
Hs-578T = test system: Hs-578T
786-0 = test system: 786-0
MDA-N = test system: MDA-N
UACC-257 = test system: UACC-257
SK-MEL-5 = test system: SK-MEL-5
SN12C = test system: SN12C
HCC 2998 = test system: HCC 2998
NCI-H226 = test system: NCI-H226
SW-620 = test system: SW-620
NCI-H460 = test system: NCI-H460
A498 = test system: A498
SK-MEL-2 = test system: SK-MEL-2
SNB-19 = test system: SNB-19
HCT-116 = test system: HCT-116
HT-29 = test system: HT-29
SF-539 = test system: SF-539
SF-295 = test system: SF-295
MDA-MB-231 = test system: MDA-MB-231
SK-MEL-28 = test system: SK-MEL-28

With `CCOc1cc2c(cc1O)C(O)C[C@@H]1[C@@H]2CC[C@]2(C)[C@@H](O)CC[C@@H]12` (stereo partly drawn) the GI50 (HCT-15) was 0.218 µM, the GI50 (HOP-92) was 12.5 µM (inactive) and the GI50 (KM12) was 3.24 µM (inactive). The GI50 (RXF 393) was 1.44 µM (inactive), the GI50 (ACHN) was 0.553 µM (active) and the GI50 (IGROV-1) was 0.431 µM (active). The GI50 (NCI/ADR-RES) was 0.279 µM (active), the GI50 (Malme-3M) was 0.307 µM (active) and the GI50 (COLO 205) was 19.3 µM (inactive). The GI50 (LOX IMVI) was 0.299 µM (active), the GI50 (HOP-62) was 0.675 µM (active) and the GI50 (PC-3) was 3.44 µM (inactive). For the same compound, the GI50 (MCF7) was 0.268 µM (active), the GI50 (CCRF-CEM) was 0.298 µM (active) and the GI50 (U-251) was 0.394 µM (active). For the same compound, the GI50 (UACC-62) was 0.284 µM (active), the GI50 (SF-268) was 4.16 µM (inactive) and the GI50 (K562) was 0.0991 µM (active). The GI50 (MOLT-4) was 0.692 µM (active), the GI50 (SR) was 4.94 µM (inactive) and the GI50 (OVCAR-8) was 0.885 µM (active). The GI50 (OVCAR-4) was > 100 µM (inactive), the GI50 (SK-OV-3) was 0.493 µM (active) and the GI50 (SNB-75) was 0.619 µM (active). The GI50 (DU-145) was 0.59 µM (active), the GI50 (TK-10) was 0.661 µM (active) and the GI50 (CAKI-1) was 0.514 µM (active). For the same compound, the GI50 (RPMI-8226) was 0.467 µM (active), the GI50 (OVCAR-3) was 0.347 µM (active) and the GI50 (UO-31) was 0.767 µM (active). The GI50 (OVCAR-5) was 52.2 µM (inactive), the GI50 (HL-60) was 0.0822 µM (active) and the GI50 (M14) was 0.575 µM (active). For the same compound, the GI50 (BT-549) was 39.1 µM (inactive), the GI50 (EKVX) was 1.32 µM (inactive) and the GI50 (NCI-H522) was 0.129 µM (active). For the same compound, the GI50 (NCI-H23) was 0.766 µM (active), the GI50 (A549) was 0.231 µM (active) and the GI50 (MDA-MB-435) was 0.033 µM (active). The GI50 (Hs-578T) was 0.46 µM (active), the GI50 (786-0) was 0.324 µM (active) and the GI50 (MDA-N) was 0.0459 µM (active). The GI50 (UACC-257) was 0.444 µM (active), the GI50 (SK-MEL-5) was 0.236 µM (active) and the GI50 (SN12C) was 0.61 µM (active). The GI50 (HCC 2998) was 3.03 µM (inactive), the GI50 (NCI-H226) was 0.552 µM (active) and the GI50 (SW-620) was 0.317 µM (active). For the same compound, the GI50 (NCI-H460) was 0.265 µM (active), the GI50 (A498) was 0.0501 µM (active) and the GI50 (SK-MEL-2) was > 100 µM (inactive). The GI50 (SNB-19) was 0.465 µM (active), the GI50 (HCT-116) was 0.261 µM (active) and the GI50 (HT-29) was 4.44 µM (inactive). For the same compound, the GI50 (SF-539) was 0.28 µM (active), the GI50 (SF-295) was 0.281 µM (active) and the GI50 (MDA-MB-231) was 1.25 µM (inactive).
In the case of `O=c1[nH]c2ccc(CC(=S)N3CCOCC3)cc2s1`, the GI50 (HCT-15) is reported as > 100 µM, the GI50 (KM12) is reported as > 100 µM (inactive) and the GI50 (RXF 393) is reported as > 100 µM (inactive). For the same compound, the GI50 (ACHN) was > 100 µM (inactive), the GI50 (IGROV-1) was > 100 µM (inactive) and the GI50 (NCI/ADR-RES) was > 100 µM (inactive). For the same compound, the GI50 (Malme-3M) was > 100 µM (inactive), the GI50 (COLO 205) was > 100 µM (inactive) and the GI50 (LOX IMVI) was > 100 µM (inactive). For the same compound, the GI50 (HOP-62) was > 100 µM (inactive), the GI50 (PC-3) was > 100 µM (inactive) and the GI50 (MCF7) was > 100 µM (inactive). The GI50 (CCRF-CEM) was > 100 µM (inactive), the GI50 (U-251) was > 100 µM (inactive) and the GI50 (UACC-62) was > 100 µM (inactive). The GI50 (SF-268) was > 100 µM (inactive), the GI50 (K562) was > 100 µM (inactive) and the GI50 (MOLT-4) was > 100 µM (inactive). For the same compound, the GI50 (SR) was > 100 µM (inactive), the GI50 (OVCAR-8) was > 100 µM (inactive) and the GI50 (SK-OV-3) was > 100 µM (inactive). For the same compound, the GI50 (DU-145) was > 100 µM (inactive), the GI50 (TK-10) was > 100 µM (inactive) and the GI50 (CAKI-1) was > 100 µM (inactive). The GI50 (RPMI-8226) was > 100 µM (inactive), the GI50 (OVCAR-3) was > 100 µM (inactive) and the GI50 (OVCAR-5) was > 100 µM (inactive). The GI50 (HL-60) was 53.6 µM (inactive), the GI50 (M14) was > 100 µM (inactive) and the GI50 (BT-549) was > 100 µM (inactive). For the same compound, the GI50 (EKVX) was > 100 µM (inactive), the GI50 (NCI-H23) was > 100 µM (inactive) and the GI50 (SK-MEL-28) was > 100 µM (inactive). The GI50 (MDA-MB-435) was > 100 µM (inactive), the GI50 (Hs-578T) was > 100 µM (inactive) and the GI50 (786-0) was > 100 µM (inactive). The GI50 (MDA-N) was > 100 µM (inactive), the GI50 (UACC-257) was > 100 µM (inactive) and the GI50 (SK-MEL-5) was > 100 µM (inactive). The GI50 (SN12C) was > 100 µM (inactive), the GI50 (NCI-H226) was > 100 µM (inactive) and the GI50 (SW-620) was > 100 µM (inactive). For the same compound, the GI50 (NCI-H460) was > 100 µM (inactive), the GI50 (A498) was > 100 µM (inactive) and the GI50 (SK-MEL-2) was > 100 µM (inactive). For the same compound, the GI50 (SNB-19) was > 100 µM (inactive), the GI50 (HCT-116) was > 100 µM (inactive) and the GI50 (HT-29) was > 100 µM (inactive). The GI50 (SF-539) was > 100 µM (inactive), the GI50 (SF-295) was > 100 µM (inactive) and the GI50 (MDA-MB-231) was > 100 µM (inactive).
